Experimental findings from patent US20260199213A1, “PEPTIDE HAVING ACTIVITY OF IMPROVING STATE OF SKIN, AND USE THEREOF” (CAREGEN CO., LTD., priority 2022, published 2026) are described below.

The assay has as its system reactive oxygen species in HaCaT cells. Description: Reactive oxygen species increased by ultraviolet rays in HaCaT cells (DCF-DA, flow cytometry). The format is cell-based. On the procedure:
In this example, the aim was to confirm the effect of the peptide according to an embodiment on the antioxidant effect in damaged skin, by evaluating the change in the level of reactive oxygen species in skin cells increased by ultraviolet irradiation.
Specifically, NIH3T3 cells or HaCaT cells were seeded in a 6-well plate at a density of 5×10^5 cells/well and cultured for 24 hours. Next, the cells were washed once with serum-free DMEM media, and 10 μM, 50 μM or 1000 μM of the peptide consisting of the amino acid sequence of SEQ ID NO: 1 was dispensed into 1 mL of the serum-free media, and cultured in a CO2 incubator at 37° C. for 1 hour. Next, the above culture was transferred to an e-tube, mixed with 1 ml of PBS, and dispensed into a well plate. Next, using a UV irradiator (VILBER LOURMAT, Cat No.: 3102-BSU, France), 6 J/cm^2 ultraviolet rays were irradiated to NIH3T3 cells, and 15 mJ/cm^2 ultraviolet rays were irradiated to HaCaT cells. Next, the PBS in the well plate was removed, 900 μL of the culture medium in which the peptides were dispensed was added, and the plate was cultured in a CO2 incubator at 37° C. for 24 hours. The culture was then treated with DCFG-DA (2′,7′-dichlorofluorescin diacetate), wrapped in foil, and cultured in a CO2 incubator at 37° C. for 30 minutes. Next, the culture was washed twice with PBS and treated with 500 μL of 1× trypsin/EDTA to acquired cells, which were then centrifuged. After washing the centrifuged cells with PBS, FL1 fluorescence values were measured through flow cytometry (FACS, BD, USA). […]
In this example, the aim was to compare in more detail, the effect of peptides according to an embodiment on the antioxidant effect in damaged skin cells. To this end, the peptide consisting of the amino acid sequence of SEQ ID NO: 2, 3, or 4 having a sequence similar to the peptide according to an embodiment was set as a comparison group, and the level of reactive oxygen species in skin cells increased by ultraviolet irradiation of HaCaT cells was evaluated and compared in the same manner as in Example 4-1. […]
In general terms: Flow cytometry measures light scatter and fluorescence of single cells or particles in a stream.

As for GPRGDP [SEQ ID NO: 1], for the setting “HaCaT cells, vs peptides of SEQ ID NO: 2, 3, or 4 (50 μM, 100 μM)”, the “reactive oxygen species reducing effect compared to the comparison group” value is “superior”. For the same substance, the “level of reactive oxygen species increased by ultraviolet irradiation” value (keratinocytes (HaCaT), 15 mJ/cm^2 UV, 10 μM, 50 μM or 1000 μM peptide, 24 hours) was “reduced”. Moreover, the “level of reactive oxygen species increased by ultraviolet irradiation (Example 4-2)” value (keratinocytes (HaCaT), comparison experiment, FIG. 11) is given as “reduced”.
